Assays:
[1] = tested on: HIV-1 (H9IIIB strain); experiment: Antiviral Assays in Cell Culture (Spread), acute infection assay; format: cell-based; conditions: Human immunodeficiency virus 1, T-lymphoid, read-out: Viking 50% (nM)
Description: Antiviral Assays in Cell Culture (“Spread”)
Acute Infection Assay (“Spread”) data were generated using HIV-1 (H9IIIB strain) infection of MT-4 human T-lymphoid cells in 10% FBS, and according to the methods disclosed by J. P. Vacca et al, “L-735,524: An orally bioavailable human immunodeficiency virus type 1 protease inhibitor,” Proc. Natl. Acad. Sci. USA, Vol. 91, pp. 4096-4100 (April 1994).

[2] = biological target: T1, wildtype HIV-1 protease (Human immunodeficiency virus type 1 group M subtype B, UniProt P04585); experiment: Assay for Inhibition of Microbial Expressed HIV Protease (Pepcleav); format: biochemical
T1 construct: preincubated with the HIV-1 protease (wild type) enzyme in assay buffer; made in house; host or cells: Escherichia coli
Summary of the method: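 E. coli-expressed wildtype protease (20 pM final) preincubated with inhibitor 30 min at room temperature in 50 mM sodium acetate pH 5.5, 100 mM NaCl, 0.1% BSA. Reaction with 400 μM peptide substrate ran 1 h at 30° C. Inhibition derived from LC-MS/MS (MRM) product peak area.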

Compound	EC50 [1]	IC50 [2]
Cc1cc2nc([C@@H]3CO[C@H](CCc4c(F)cncc4NC(=O)C[C@@H](c4ccc(F)cc4)c4ccncc4F)CN3)[nH]c2cc1C [Example 63, (3S)—N-(4-{2-[(2R,5R)-5-(5,6-dimethyl-1H-benzimidazol-2-yl)morpholin-2-yl]ethyl}-5-fluoropyridin-3-yl)-3-(4-fluorophenyl)-3-(3-fluoropyridin-4-yl)propanamide]	63 nM	
Cc1cc2nc([C@@H]3CO[C@H](CCc4c(F)cncc4NC(=O)C[C@@H](c4ccc(F)cc4)c4cc(F)cc(F)c4)CN3)[nH]c2cc1C [Example 64, (3S)-3-(3,5-difluorophenyl)-N-(4-{2-[(2R,5R)-5-(5,6-dimethyl-1H-benzimidazol-2-yl)morpholin-2-yl]ethyl}-5-fluoropyridin-3-yl)-3-(4-fluorophenyl)propanamide]	16 nM	
O=C(C[C@@H](c1ccc(F)cc1)c1cc(F)cc(F)c1)Nc1cncc(F)c1CC[C@@H]1CN[C@H](c2nc3ccc(Cl)cc3[nH]2)CO1 [Example 65, (3S)—N-(4-{2-[(2R,5R)-5-(6-chloro-1H-benzimidazol-2-yl)morpholin-2-yl]ethyl}-5-fluoropyridin-3-yl)-3-(3,5-difluorophenyl)-3-(4-fluorophenyl)propanamide]	13 nM	
Cc1ccc2nc([C@@H]3CO[C@H](CCc4c(F)cncc4NC(=O)C[C@@H](c4ccc(F)cc4)c4cc(F)cc(F)c4)CN3)[nH]c2c1 [Example 66, (3S)-3-(3,5-difluorophenyl)-N-(5-fluoro-4-{2-[(2R,5R)-5-(6-methyl-1H-benzimidazol-2-yl)morpholin-2-yl]ethyl}pyridin-3-yl)-3-(4-fluorophenyl)propanamide]	22 nM	
Cc1cc2nc([C@@H]3CO[C@H](CCc4c(F)cncc4NC(=O)C[C@H](c4cccc(F)c4)c4ccc(Cl)c(F)c4)CN3)[nH]c2cc1C [Example 67, (3R)-3-(4-chloro-3-fluorophenyl)-N-(4-{2-[(2R,5R)-5-(5,6-dimethyl-1H-benzimidazol-2-yl)morpholin-2-yl]ethyl}-5-fluoropyridin-3-yl)-3-(3-fluorophenyl)propanamide]	23 nM	
Cc1cc2nc([C@@H]3CO[C@H](CCc4c(F)cncc4NC(=O)C[C@H](c4cncc(F)c4)c4ccc(Cl)c(F)c4)CN3)[nH]c2cc1C [Example 68, (3S)-3-(4-chloro-3-fluorophenyl)-N-(4-{2-[(2R,5R)-5-(5,6-dimethyl-1H-benzimidazol-2-yl)morpholin-2-yl]ethyl}-5-fluoropyridin-3-yl)-3-(5-fluoropyridin-3-yl)propanamide]	52 nM	
Cc1cc2nc([C@@H]3CO[C@H](CCc4c(F)cncc4NC(=O)C[C@H](c4ccccc4)c4ccc(F)cc4)CN3)[nH]c2cc1C [Example 69, (3R)—N-(4-{2-[(2R,5R)-5-(5,6-dimethyl-1H-benzimidazol-2-yl)morpholin-2-yl]ethyl}-5-fluoropyridin-3-yl)-3-(4-fluorophenyl)-3-phenylpropanamide]	80 nM	0.01 nM
COC(=O)N[C@H](C(=O)Nc1ccccc1CC[C@@H]1CN[C@H](c2ncc[nH]2)[C@@H](CSc2nnc(-c3ccncc3)o2)O1)C(c1ccccc1)c1ccccc1 [Example 87, N-(2-{2-[(2R,5R)-(1H-imidazol-2-yl)-6-{[(5-pyridin 4-yl-1,3,4-oxadiazol-2-yl)sulfanyl]methyl}morpholin-2-yl]ethyl}phenyl)-Nalpha-(methoxycarbonyl)-β-phenyl-L-phenylalaninamide]		0.6 nM
COC(=O)N[C@H](C(=O)Nc1ccccc1CC[C@@H]1CN[C@H](c2cn(C)c(=O)[nH]2)CO1)C(c1ccccc1)c1ccccc1 [Example 88]		310 nM
COC(=O)N[C@H](C(=O)Nc1ccccc1CC[C@@H]1CN[C@H](c2nc3ccc(O)nc3[nH]2)CO1)C(c1ccccc1)c1ccccc1 [Example 89]		150 nM
COC(=O)N[C@H](C(=O)Nc1ccccc1CC[C@@H]1CN[C@H](c2[nH]c3ccccc3c2C=[N+](C)C)CO1)C(c1ccccc1)c1ccccc1 [Example 90, N-[(2-{(3R,6R)-6-[2-(2-{[N-(methoxycarbonyl)-β-phenyl-L-phenylalanyl]amino}phenyl)ethyl]morpholin-3-yl}-1H-indol-3-yl)methylidene]-N-methylmethanaminium]		68 nM
Cc1cc2nc([C@@H]3CO[C@H](CCc4c(F)cncc4NC(=O)[C@@H](N)C(c4ccc(F)cc4)c4ccc(F)cc4)CN3)[nH]c2cc1C [Example 92, N-(4-{2-[(2R,5R)-5-(5,6-dimethyl-1H-benzimidazol 2-yl)morpholin-2-yl]ethyl}-5-fluoropyridin-3-yl)-4-fluoro-β-(4-fluorophenyl)-L-phenylalaninamide]		0.06 nM
N[C@H](C(=O)Nc1cncc(F)c1CC[C@@H]1CN[C@H](c2nc3cc(F)c(F)cc3[nH]2)CO1)C(c1ccc(F)cc1)c1ccc(F)cc1 [Example 93, N-(4-{2-[(2R,5R)-5-(5,6-difluoro-1H-benzimidazol-2-yl)morpholin-2-yl]ethyl}-5-fluoropyridin-3-yl)-4-fluoro-β-(4-fluorophenyl)-L-phenylalaninamide]		0.02 nM
N[C@H](C(=O)Nc1cccc(F)c1OC[C@@H]1CN[C@H](c2nc3ccccc3[nH]2)CO1)C(c1ccccc1)c1ccccc1 [Example 94, N-(2-{[(2S,5R)-5-(1H-benzimidazol-2-yl)morpholin-2-yl]methoxy}-3-fluorophenyl)-β-phenyl-L-phenylalaninamide]		0.22 nM
COC(=O)N[C@H](C(=O)Nc1cncc(F)c1CC[C@@H]1CN[C@H](c2nc3cc(C)c(C)cc3[nH]2)CO1)C(c1ccc(F)cc1)c1ccc(F)cc1 [Example 95, N-(4-{2-[(2R,5R)-5-(5,6-dimethyl-1H-benzimidazol-2-yl)morpholin-2-yl]ethyl}-5-fluoropyridin-3-yl)-4-fluoro-β-(4-fluorophenyl)-Nalpha-(methoxycarbonyl)-L-phenylalaninamide]		0.03 nM
O=C(CC(c1ccc(F)cc1)c1ccc(F)cc1)Nc1cccc(F)c1CC[C@@H]1CN[C@H](c2nc3ccccc3[nH]2)CO1 [Example 97, N-(2-{2-[(2R,5R)-5-(1H-benzimidazol-2-yl)morpholin-2-yl]ethyl}-3-fluorophenyl)-3,3-bis(4-fluorophenyl) propanamide]		0.04 nM
O=C(C[C@@H](c1ccc(F)cc1)c1ccc(F)cc1F)Nc1cccc(F)c1CC[C@@H]1CN[C@H](c2nc3ccccc3[nH]2)CO1 [Example 98, (3S)-N-(2-{2-[(2R,5R)-5-(1H-benzimidazol-2-yl)morpholin-2-yl]ethyl}-3-fluorophenyl)-3-(2,4-difluorophenyl)-3-(4-fluorophenyl) propanamide]		0.05 nM
O=C(CCc1ccccc1Cl)Nc1cccc(F)c1CC[C@@H]1CN[C@H](c2nc3ccccc3[nH]2)CO1 [Example 99, N-(2-{2-[(2R,5R)-5-(1H-benzimidazol-2-yl)morpholin-2-yl]ethyl}-3-fluorophenyl)-3-(2-chlorophenyl) propanamide]		11 nM
O=C(CC(c1ccccc1)c1ccccc1)Nc1cccc(F)c1CC[C@@H]1CN[C@H](c2nc3ccccc3[nH]2)CO1 [Example 100, N-(2-{2-[(2R,5R)-5-(1H-benzimidazol-2-yl)morpholin-2-yl]ethyl}-3-fluorophenyl)-3,3-diphenylpropanamide]		0.65 nM
N[C@H](C(=O)Nc1cncc(F)c1CC[C@@H]1CN[C@H](c2nc3cc(C(=O)NCC(F)(F)F)ccc3[nH]2)CO1)C(c1ccccc1)c1ccccc1 [Example 101, N-(5-fluoro-4-{2-[(2R,5R)-5-{5-[(2,2,2-trifluoroethyl)carbamoyl]-1H-benzimidazol-2-yl}morpholin-2-yl]ethyl}pyridin-3-yl)-β-phenyl-L-phenylalaninamide]		26 nM
N[C@@H](Cc1ccccc1Cl)C(=O)Nc1cccc(F)c1CC[C@@H]1CN[C@H](c2nc3ccccc3[nH]2)CO1 [Example 102, N-(2-{2-[(2R,5R)-5-(1H-benzimidazol-2-yl)morpholin-2-yl]ethyl}-3-fluorophenyl)-2-chloro-L-phenylalaninamide]		17 nM
O=C(COc1ccccc1Cl)Nc1cccc(F)c1CC[C@@H]1CN[C@H](c2nc3ccccc3[nH]2)CO1 [Example 103, N-(2-{2-[(2R,5R)-5-(1H-benzimidazol-2-yl)morpholin-2-yl]ethyl}-3-fluorophenyl)-2-(2-chlorophenoxy) acetamide]		31 nM
Cc1cc2nc([C@@H]3CO[C@H](COc4c(F)cccc4NC(=O)C[C@@H](c4ccc(F)cc4)c4cc(F)cc(F)c4)CN3)[nH]c2cc1C [Example 104, (3S)-3-(3,5-difluorophenyl)-N-(2-{[(2S,5R)-5-(5,6-dimethyl-1H-benzimidazol-2-yl)morpholin-2-yl]methoxy}-3-fluorophenyl)-3-(4-fluorophenyl) propanamide]		1.1 nM

Source: patent US9737545B2 (MERCK SHARP & DOHME CORP., priority 2013, dated 2017)
